# Test results: US12708620B2, “Prodrugs and medical uses thereof” (priority 2018, dated 2026)
# Key:
# SW1990 = experiment: in vitro cell culture sensitivity in anoxic conditions; assay type: cell-based, human
# [1] = preliminary toxicology study, intravenous administration; assay type: in vivo, dog
# Method: Preliminary toxicology studies of the intravenous administration of Cpd.11 Ms in rats and dogs according to a dosing regimen consisting of 3 consecutive days of administration in a 3 weekly cycle (QDx3/cycle) have shown that potential haematological toxicity in tissues such as the bone marrow, the thymus and lymph nodes (known to have hypoxic niches) can be minimized at dosages at or below 400 mg/kg in the rat and at or below 100 mg/kg in the dog. As such, these levels correspond to 2360 mg/m^2 and 2000 mg/m^2, respectively, in human subjects. […] Alternative dosing regimens also include weekly administration for up to 3 or 4 consecutive times of each 3 or 4 weekly cycle. In addition, also an initial dose of QDx3 or QDx5 could be combined with less frequent administration schedules that may still allow a therapeutic effect over tumor growth and development, such as up to 3 or 4 weekly dosages in 3 to 4 weekly cycles, or once a month (or every three-four weeks) schedules that be applied with or without the parallel treatment with the appropriate standard-of-care protocols.
smiles,measurement,setting,value
"CCN1CCN(C(=O)c2cc(N(CCBr)CCOS(C)(=O)=O)c(S(C)(=O)=O)cc2[N+](=O)[O-])CC1.CS(=O)(=O)O [Cpd.11 Ms, 4-(5-((2-bromoethyl) (2-((methylsulfonyl)oxy)ethyl)amino)-4-(methylsulfonyl)-2-nitrobenzoyl)-1-ethylpiperazin-1-ium methanesulfonate]",sensitivity in anoxic conditions in vitro,SW1990,highly Cpd.11 Ms-sensitive
same,"dosage at which potential haematological toxicity (bone marrow, thymus, lymph nodes) can be minimized","[1]; dog, intravenous, QDx3 in a 3 weekly cycle",≤ 100 mg/kg
same,corresponding level in human subjects of the dog dosage,[1]; from 100 mg/kg in the dog,2000 mg/m^2
